In patent US20230066011A1, “PYRROLOPYRIMIDINE DERIVATIVE, AND PHARMACEUTICAL COMPOSITION FOR PREVENTING OR TREATING PROTEIN KINASE-RELATED DISEASE COMPRISING SAME AS ACTIVE INGREDIENT” (VORONOI CO., LTD., priority 2019, published 2023):

How the values were obtained:
human GST-CLK1 = molecular target: T1, human GST-CLK1 (Homo sapiens, UniProt P49759); test: GST-CLK1 enzyme inhibition, ADP-Glo kinase assay; format: biochemical; details: ATP 10 μM, GST-CLK1 129-end
T1 construct: purified human GST-CLK1 (129-end, SignalChem) enzyme; purchased SignalChem
T1 sequence (P49759 129-484 limits assumed): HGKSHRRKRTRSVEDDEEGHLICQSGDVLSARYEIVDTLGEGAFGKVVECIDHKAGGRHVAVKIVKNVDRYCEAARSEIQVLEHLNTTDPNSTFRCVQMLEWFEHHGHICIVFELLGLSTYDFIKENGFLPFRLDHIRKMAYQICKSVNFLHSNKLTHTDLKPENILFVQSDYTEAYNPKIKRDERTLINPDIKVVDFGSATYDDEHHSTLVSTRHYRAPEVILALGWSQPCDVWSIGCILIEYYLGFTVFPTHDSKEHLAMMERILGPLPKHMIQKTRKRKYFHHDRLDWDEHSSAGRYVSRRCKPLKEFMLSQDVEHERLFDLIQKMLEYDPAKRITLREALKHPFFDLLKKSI
Method in brief: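 Human GST-CLK1 (129-end, 3 ng) reacted with substrate and 10 μM ATP for 1 h at 25° C in 40 mM Tris-HCl pH 7.4, 20 mM MgCl2, 0.5 mg/mL BSA, 50 μM DTT. ADP-Glo luminescence was normalised to solvent control; IC50 (nM) from 3 data sets.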

MDA-MB-231 cell line = test: Inhibition of proliferation of MDA-MB-231 cancer cells (Cell Titer-Glo); format: cell-based; details: Homo sapiens, 72 hours
Method in brief: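 Cells seeded at 2,000/well and exposed 72 h to 11 concentrations of compound (3-fold dilutions, final 10.000000 down to 0.000169 μM) in DMEM or RPMI. Viability read by Cell Titer-Glo luminescence after 10 min at room temperature; GI50 calculated from luminescence.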

LRRK2 (G2019S) = LRRK2 (G2019S) (Homo sapiens, UniProt Q5S007, G2019S); test: LRRK2 G2019S enzyme inhibition, ADP-Glo kinase assay; format: biochemical; parameters: purchased SignalChem L10-12GG; details: ATP 25 μM
Chain of LRRK2 (G2019S) (Q5S007 970-2527 G2019S limits assumed): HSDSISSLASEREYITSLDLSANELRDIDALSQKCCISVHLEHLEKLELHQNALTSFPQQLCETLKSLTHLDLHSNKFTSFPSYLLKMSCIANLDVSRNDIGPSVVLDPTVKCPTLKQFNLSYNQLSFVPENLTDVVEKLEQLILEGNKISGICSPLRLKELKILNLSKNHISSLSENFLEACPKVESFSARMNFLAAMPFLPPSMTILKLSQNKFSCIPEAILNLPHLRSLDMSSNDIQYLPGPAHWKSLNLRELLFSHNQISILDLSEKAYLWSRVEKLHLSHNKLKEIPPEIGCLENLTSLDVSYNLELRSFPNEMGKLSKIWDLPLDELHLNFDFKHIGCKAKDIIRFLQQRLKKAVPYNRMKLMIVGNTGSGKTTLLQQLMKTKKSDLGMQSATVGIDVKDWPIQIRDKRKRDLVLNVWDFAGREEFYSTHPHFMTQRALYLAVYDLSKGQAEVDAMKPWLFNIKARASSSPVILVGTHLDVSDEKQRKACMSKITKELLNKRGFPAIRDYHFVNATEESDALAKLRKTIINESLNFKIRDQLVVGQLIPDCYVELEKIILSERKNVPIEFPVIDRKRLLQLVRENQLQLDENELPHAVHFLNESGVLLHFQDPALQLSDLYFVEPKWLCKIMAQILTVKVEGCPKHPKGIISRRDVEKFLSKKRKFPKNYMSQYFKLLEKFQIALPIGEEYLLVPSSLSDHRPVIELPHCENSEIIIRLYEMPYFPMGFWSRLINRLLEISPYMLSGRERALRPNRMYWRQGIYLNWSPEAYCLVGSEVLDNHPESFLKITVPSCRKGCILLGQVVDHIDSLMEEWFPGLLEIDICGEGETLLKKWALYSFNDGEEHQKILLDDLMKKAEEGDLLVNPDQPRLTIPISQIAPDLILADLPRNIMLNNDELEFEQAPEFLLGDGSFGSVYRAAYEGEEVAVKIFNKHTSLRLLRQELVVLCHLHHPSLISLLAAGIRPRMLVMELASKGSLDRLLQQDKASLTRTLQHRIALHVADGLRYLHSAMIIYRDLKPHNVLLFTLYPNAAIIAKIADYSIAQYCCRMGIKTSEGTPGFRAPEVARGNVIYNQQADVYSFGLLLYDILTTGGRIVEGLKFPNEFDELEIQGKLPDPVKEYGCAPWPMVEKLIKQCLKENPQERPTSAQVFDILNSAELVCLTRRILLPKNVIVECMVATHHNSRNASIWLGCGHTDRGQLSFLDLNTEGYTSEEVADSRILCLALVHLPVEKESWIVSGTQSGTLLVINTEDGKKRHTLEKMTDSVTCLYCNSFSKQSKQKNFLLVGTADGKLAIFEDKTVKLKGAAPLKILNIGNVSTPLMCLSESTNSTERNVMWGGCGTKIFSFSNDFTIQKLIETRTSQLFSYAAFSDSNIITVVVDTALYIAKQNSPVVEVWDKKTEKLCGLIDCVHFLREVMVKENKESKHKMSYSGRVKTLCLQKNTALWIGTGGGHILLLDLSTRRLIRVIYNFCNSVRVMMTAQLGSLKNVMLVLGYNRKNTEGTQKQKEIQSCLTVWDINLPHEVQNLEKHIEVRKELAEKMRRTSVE
Method in brief: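 Purified human LRRK2 G2019S (16 ng) with 25 μM ATP and 0.2 μg substrate, 2 h at 25° C. in Tris-HCl pH 7.4, MgCl2, BSA, DTT buffer; compounds at 12 final concentrations, 50 μM down to 0.000001024 μM. ADP-Glo luminescence versus solvent control gave IC50.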

TNF-α = test: Inhibition of LPS-induced TNF-α secretion of THP-1 monocytes (ELISA); format: cell-based, human; details: Homo sapiens, THP-1; compound 0.5 μM, LPS 500 ng/mL, 24 hours; read-out: THP-1/TNF-α (% inhib)
Protocol: To evaluate an inhibitory effect on cytokine secretion of monocytes, THP-1 cells (ATCC, #TIB-202) as a human-derived monocyte line were cultured in an RPMI-1640 (Hyclone, SH30027.01) medium supplemented with 10% fetal bovine serum (Hyclone, SH30084.03), 1% penicillin streptomycin (Welgene, LS202-02), and 50 μM 2-mercaptoethanol (Gibco, #21985023). In the test, the cells were seeded in a 48-well plate (SPL, #30048) at a density of 1.5 to 2×10^5 cells/250 μL per well, and cultured at 37° C. for 16 hours in a 5% CO2 incubator. Thereafter, the compound was diluted with DMSO so that the final concentration of the compound was 0.5 μM. Then, the cells were treated with the diluted compound before an hour of treatment with lipopolysaccharides (LPS) (Sigma, #L6529). After the treatment with the compound, the cells were treated with LPS so that the final concentration was 500 ng/mL. Then, a cell culture broth was collected after 24 hours of culture, and levels of cytokine IL-6 (R&D Systems, #D6050) and TNF-α (R&D Systems, #DTA00D) comprised in the culture broth were measured using respective ELISA kits. After an experiment was performed according to the manufacturer's guidelines, cell analysis was performed by measuring the optical density at 450 nm using a microplate reader.

Row | IC50 (human GST-CLK1) [nM] | GI50 (MDA-MB-231 cell line) [nM] | IC50 (LRRK2 (G2019S)) [nM] | Compound | inhibition at 0.5 µM (TNF-α) [%]
1 | 301 to 1000 | 101 to 300 | – | N#Cc1c[nH]c2nc(Nc3ccc(C(=O)N4CCOCC4)c4c3OCCO4)nc(NCC3CCCC3)c12 [Example 133, 4-((cyclopentylmethyl)amino)-2-((8-(morpholine-4-carbonyl)-2,3-dihydrobenzo[b][1,4]dioxin-5-yl)amino)-7H-pyrrolo[2,3-d]pyrimidine-5-carbonitrile] | –
2 | < 100 | – | < 100 | CCCNc1nc(Nc2ccc(C(=O)N3CCC(N4CCOCC4)CC3)c3c2OCCO3)nc2[nH]cc(C#N)c12 [Example 138, 2-((8-(4-morpholinopiperidine-1-carbonyl)-2,3-dihydrobenzo[b][1,4]dioxin-5-yl)amino)-4-(propylamino)-7H-pyrrolo[2,3-d]pyrimidine-5-carbonitrile] | –
3 | < 100 | 101 to 300 | < 100 | CCNc1nc(Nc2ccc(S(=O)(=O)N3CCC(N4CCOCC4)CC3)cc2OC)nc2[nH]cc(C(F)(F)F)c12 [Example 158, N^4-ethyl-N^2-(2-methoxy-4-((4-morpholinopiperidin-1-yl)sulfonyl)phenyl)-5-(trifluoromethyl)-7H-pyrrolo[2,3-d]pyrimidine-2,4-diamine 2,2,2-trifluoroacetate] | –
4 | – | 301 to 1000 | 101 to 300 | CCCNc1nc(Nc2ccc(S(=O)(=O)N3CCC(N4CCOCC4)CC3)cc2OC)nc2[nH]cc(C(F)(F)F)c12 [Example 161, N^2-(2-methoxy-4-((4-morpholinopiperidin-1-yl)sulfonyl)phenyl)-N^4-propyl-5-(trifluoromethyl)-7H-pyrrolo[2,3-d]pyrimidine-2,4-diamine] | –
5 | < 100 | – | < 100 | CNc1nc(Nc2ccc(C(=O)N3CCC(N4CCOCC4)CC3)c3c2OCC3)nc2[nH]cc(C(F)(F)F)c12 [Example 217, (7-((4-(methylamino)-5-(trifluoromethyl)-7H-pyrrolo[2,3-d]pyrimidin-2-yl)amino)-2,3-dihydrobenzofuran-4-yl)(4-morpholinopiperidin-1-yl)methanone] | –
6 | < 100 | – | – | N#Cc1c[nH]c2nc(Nc3ccc(C(=O)N4CCC(N5CCOCC5)CC4)c4c3OCCO4)nc(C3CC3)c12 [Example 221, 4-cyclopropyl-2-((8-(4-morpholinopiperidine-1-carbonyl)-2,3-dihydrobenzo[b][1,4]dioxin-5-yl)amino)-7H-pyrrolo[2,3-d]pyrimidine-5-carbonitrile] | –
7 | 301 to 1000 | 301 to 1000 | – | COc1cc(S(=O)(=O)N2CCOCC2)ccc1Nc1nc(C2CC2)c2c(C#N)c[nH]c2n1 [Example 223, 4-cyclopropyl-2-((2-methoxy-4-(morpholinosulfonyl)phenyl)amino)-7H-pyrrolo[2,3-d]pyrimidine-5-carbonitrile] | –
8 | 101 to 300 | – | – | COc1cc(S(=O)(=O)N2CCC(N3CCOCC3)CC2)ccc1Nc1nc(C2CC2)c2c(C#N)c[nH]c2n1 [Example 224, 4-cyclopropyl-2-((2-methoxy-4-((4-morpholinopiperidin-1-yl)sulfonyl)phenyl)amino)-7H-pyrrolo[2,3-d]pyrimidine-5-carbonitrile] | –
9 | 301 to 1000 | 301 to 1000 | 101 to 300 | COc1cc(S(=O)(=O)N2CCC(N3CCOCC3)CC2)ccc1Nc1nc(C2CC2)c2c(C(F)(F)F)c[nH]c2n1 [Example 226] | –
10 | < 100 | – | < 100 | O=C(c1ccc(Nc2nc(C3CC3)c3c(C(F)(F)F)c[nH]c3n2)c2c1OCCO2)N1CCC(N2CCOCC2)CC1 [Example 228, (8-((4-cyclopropyl-5-(trifluoromethyl)-7H-pyrrolo[2,3-d]pyrimidin-2-yl)amino)-2,3-dihydrobenzo[b][1,4]dioxin-5-yl)(4-morpholinopiperidin-1-yl)methanone] | –
11 | < 100 | 101 to 300 | < 100 | CNc1nc(Nc2cc(F)c(S(=O)(=O)N3CCC(N4CCOCC4)CC3)cc2OC)nc2[nH]cc(C(F)(F)F)c12 [Example 231, N^2-(5-fluoro-2-methoxy-4-((4-morpholinopiperidin-1-yl)sulfonyl)phenyl)-N^4-methyl-5-(trifluoromethyl)-7H-pyrrolo[2,3-d]pyrimidine-2,4-diamine] | –
12 | 101 to 300 | 301 to 1000 | < 100 | CCNc1nc(Nc2cc(F)c(S(=O)(=O)N3CCC(N4CCOCC4)CC3)cc2OC)nc2[nH]cc(C(F)(F)F)c12 [Example 232, N^4-ethyl-N^2-(5-fluoro-2-methoxy-4-((4-morpholinopiperidin-1-yl)sulfonyl)phenyl)-5-(trifluoromethyl)-7H-pyrrolo[2,3-d]pyrimidine-2,4-diamine] | –
13 | < 100 | – | < 100 | CNc1nc(Nc2ccc(C(=O)N3CCC(N4CCOCC4)CC3)c3c2OCCO3)nc2[nH]cc(C(F)(F)F)c12 [Example 238, (8-((4-(methylamino)-5-(trifluoromethyl)-7H-pyrrolo[2,3-d]pyrimidin-2-yl)amino)-2,3-dihydrobenzo[b][1,4]dioxin-5-yl)(4-morpholinopiperidin-1-yl)methanone] | –
14 | < 100 | – | – | CCN1CCP(=O)(c2ccc(Nc3nc(C4CC4)c4c(C#N)c[nH]c4n3)c(OC)c2)CC1 [Example 261] | –
15 | < 100 | – | – | COCCNc1nc(Nc2ccc(C(=O)N3CCN(C4COC4)CC3)c3c2OCCO3)nc2[nH]cc(C(F)(F)F)c12 [Example 403, (8-((4-((2-methoxyethyl)-amino)-5-(trifluoromethyl)-7H-pyrrolo[2,3-d]pyrimidin-2-yl)amino)-2,3-dihydrobenzo[b] [1,4]dioxin-5-yl) (4-(oxetan-3-yl)piperazin-1-yl)methanone] | 40.4
16 | < 100 | – | < 100 | O=C(c1ccc(Nc2nc(NC3CC3)c3c(C(F)(F)F)c[nH]c3n2)c2c1OCCO2)N1CCN(C2COC2)CC1 [Example 405, (8-((4-(cyclo-propylamino)-5-(trifluoromethyl)-7H-pyrrolo[2,3-d]pyrimidin-2-yl)amino)-2,3-dihydrobenzo[b] [1,4]dioxin-5-yl) (4-(oxetan-3-yl)piperazin-1-yl)methanone] | –
17 | < 100 | – | – | O=C(c1ccc(Nc2nc(NC3CCC3)c3c(C(F)(F)F)c[nH]c3n2)c2c1OCCO2)N1CCN(C2COC2)CC1 [Example 407, (8-((4-(cyclo-butylamino)-5-(trifluoromethyl)-7H-pyrrolo[2,3-d]pyrimidin-2-yl)amino)-2,3-dihydrobenzo[b] [1,4]dioxin-5-yl) (4-(oxetan-3-yl)piperazin-1-yl)methanone] | 5.3
18 | < 100 | – | – | CNc1nc(Nc2ccc(P3(=O)CCN(C4CC4)CC3)cc2OC)nc2[nH]cc(C(F)(F)F)c12 [Example 411, 1-cyclopropyl-4-(3-methoxy-4-((4-(methylamino)-5-(trifluoromethyl)-7H-pyrrolo[2,3-d]pyrimidin-2-yl)amino)phenyl)-1,4-azaphosphinane-4-oxide] | –
19 | 301 to 1000 | – | 301 to 1000 | COc1cc(P2(=O)CCN(C3CC3)CC2)ccc1Nc1nc(NC2CCCC2)c2c(C(F)(F)F)c[nH]c2n1 [Example 413] | –
20 | 301 to 1000 | – | 301 to 1000 | O=C(c1ccc(Nc2nc(NC3CCCCC3)c3c(C(F)(F)F)c[nH]c3n2)c2c1OCCO2)N1CCN(C2COC2)CC1 [Example 415, (8-((4-(cyclo-hexylamino)-5-(trifluoromethyl)-7H-pyrrolo[2,3-d]pyrimidin-2-yl)amino)-2,3-dihydrobenzo[b] [1,4]dioxin-5-yl) (4-(oxetan-3-yl)piperazin-1-yl)methanone] | –
21 | < 100 | – | – | COc1cc(P2(=O)CCN(C3CCOCC3)CC2)ccc1Nc1nc(NC2CC2)c2c(C(F)(F)F)c[nH]c2n1 [Example 435, 4-(4-((4-(cyclo-propylamino)-5-(trifluoromethyl)-7H-pyrrolo[2,3-d]pyrimidin-2-yl)amino)-3-methoxyphenyl)-1-(tetrahydro-2H-pyran-4-yl)-1,4-azaphosphinane 4-oxide] | 6.6
22 | < 100 | – | – | COCCNc1nc(Nc2ccc(P3(=O)CCN(C4CCOCC4)CC3)cc2OC)nc2[nH]cc(C(F)(F)F)c12 [Example 444, 4-(3-methoxy-4-((4-((2-methoxyethyl)amino)-5-(trifluoromethyl)-7H-pyrrolo[2,3-d]pyrimidin-2-yl)amino)phenyl)-1-(tetrahydro-2H-pyran-4-yl)-1,4-azaphosphinane 4-oxide] | 14.4
